Like-named read-outs stand apart in the source and are kept apart here.
Legend:
[1] = known drug, background; cited from earlier work
[2] = known drug, background; cited from earlier work; remark: listed apart in the source
[3] = known drug, background; cited from earlier work; remark: listed apart in the source
moisture sensitivity = assay type: physicochemical
logP = assay type: physicochemical
pKa = assay type: physicochemical
aqueous solubility = assay type: physicochemical
logD (pH7.4) = assay type: physicochemical

| SMILES | pKa [1] | logP [2] | logD (pH7.4) [3] | moisture sensitivity (moisture sensitivity) | logP (logP) | pKa (pKa) | aqueous solubility (aqueous solubility; at about 37° C.) [mg/mL] | aqueous solubility of the free acid form (aqueous solubility; free acid form, pH 1.0-7.4) [mg/mL] | logD (pH7.4) (logD (pH7.4)) |
| --- | --- | --- | --- | --- | --- | --- | --- | --- | --- |
| CC(C(=O)O)c1cccc(C(=O)c2ccccc2)c1 (racemic) [Ketoprofen, (RS)-2-(3-benzoylphenyl)propanoic acid] | about 5.94 | about 0.97 | about 1.34 | – | – | – | – | – | – |
| CNc1cc2[nH]c(=O)n(-c3ccc(NC(=O)NS(=O)(=O)c4ccc(Cl)s4)cc3)c(=O)c2cc1F.[K] [Compound 1, [4-(6-fluoro-7-methylamino-2,4-dioxo-1,4-dihydro-2H-quinazolin-3-yl)-phenyl]-5-chloro-thiophen-2-yl-sulfonylurea potassium salt] | – | – | – | moisture sensitive | about 2.5 | about 3.3 | < 0.1 | < 0.1 | about −1.6 |
| COc1ccc2c(c1)c(CC(=O)O)c(C)n2C(=O)c1ccc(Cl)cc1 [Indomethacin] | – | about 3.8 | about 0.30 | – | – | – | – | – | – |
